Results as given in patent US8637510B2, “Morpholinothiazoles as alpha 7 positive allosteric modulators” (Janssen Pharmaceutica NV, priority 2009, dated 2014).

What was measured:
[1] = target: T1, human alpha 7-wt nAChR (Homo sapiens, UniProt P36544); assay: Ca2+ flux imaging (FDSS) (Protocol B); type: cell-based; settings: for Emax: efficacy of 100 μM choline defined as 100% in the absence of a PAM, read-out: a7-PAM-G_[33]_Eff_Curve_FI % Efficacy; for EC50: potentiation of 100 μM choline, compounds 0.01 μM to 30 μM, read-out: a7-PAM-G_[33]_pEC50 pEC50 (converted)
T1 construct: expressed in transfected cells
T1 sequence (P36544 23-502): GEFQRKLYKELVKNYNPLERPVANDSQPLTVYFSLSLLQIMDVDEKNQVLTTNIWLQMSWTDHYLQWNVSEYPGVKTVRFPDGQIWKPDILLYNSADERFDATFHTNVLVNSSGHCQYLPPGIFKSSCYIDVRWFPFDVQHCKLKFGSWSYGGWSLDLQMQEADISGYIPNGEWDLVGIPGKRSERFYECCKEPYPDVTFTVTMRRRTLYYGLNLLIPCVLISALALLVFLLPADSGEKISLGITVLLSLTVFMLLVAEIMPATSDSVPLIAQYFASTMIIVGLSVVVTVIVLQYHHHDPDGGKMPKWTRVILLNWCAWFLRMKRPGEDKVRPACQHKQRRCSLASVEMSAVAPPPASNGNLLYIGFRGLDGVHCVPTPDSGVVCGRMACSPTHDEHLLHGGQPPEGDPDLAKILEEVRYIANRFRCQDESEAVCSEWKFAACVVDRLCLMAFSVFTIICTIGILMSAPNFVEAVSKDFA
How it was run: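 Fluo-4AM-loaded cells expressing human α7-wt nAChR, in HBSS with 10 mM HEPES, 5 mM CaCl2, 0.1% BSA, received compound (0.01–30 μM), typically 10 min before 100 μM choline, with calcium flux read in real time. Potentiation is relative to choline alone (100%); EC50 from sigmoidal curves.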

[2] = target: T2, human alpha 7-wt nAChR-expressing GH4C1 cells (Homo sapiens, UniProt P36544); assay: Patch-clamp current recording (whole-cell voltage-clamp, PAM type classification); type: cell-based; parameters: key: Type 0 compounds minimally change the effect size of the current elicited by 1 mM choline.; Type 1 compounds enhance the effect size of the current elicited by 1 mM choline but minimally alter the kinetics of the receptor.; Type 2 compounds enhance the effect size of the current elicited by 1 mM choline while reducing the rate and/or the extent of desensitization.; Type 3 compounds enhance the effect size of the current elicited by 1 mM choline. When tested at higher concentrations up to 10 μM they completely inhibit desensitization; Type 4 compounds allow for an initial desensitization of the receptor followed by a re-opening of the receptor during agonist application; settings: 1 mM choline
T2 construct: expressed in transfected cells
T2 sequence (P36544 23-502): as above
How it was run: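 Whole-cell voltage clamp of GH4C1 cells stably expressing human wild-type α7 nAChR, with compound co-applied with 1 mM choline via rapid (<100 ms) solution switching; external pH 7.3, CsCl-based internal solution, 1.5-3 MΩ electrodes. PAM type (0-4) assigned from current kinetics when peak potentiation reached ≥200% of control choline response.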

Row | SMILES | Emax [1] [%] | EC50 [1] [nM] | melting point [°C] | PAM_Type PAM type [2]
1 | Cc1cc(-c2sc(N3CCO[C@H](C(F)(F)F)C3)nc2CNC(=O)CC2CC2)cc(C)n1 [Compound 192, N-[[5-(2,6-dimethyl-4-pyridinyl)-2-[(2S)-2-(trifluoromethyl)-4-morpholinyl]-4-thiazolyl]methyl]-cyclopropaneacetamide] | 670 | 234 | 183 | 2
2 | Cc1cc(-c2sc(N3CCOC(C(F)(F)F)C3)nc2CNC(=O)c2cc(C)on2)cc(C)n1 (stereo not drawn) [Compound 195, N-[[5-(2,6-dimethyl-4-pyridinyl)-2-[2-(trifluoromethyl)-4-morpholinyl]-4-thiazolyl]methyl]-5-methyl-3-isoxazolecarboxamide] | – | 186 | 170 | 0
3 | Cc1nocc1C(=O)NCc1nc(N2C[C@@H](C)O[C@@H](C)C2)sc1-c1ccnc(C(F)(F)F)c1 [Compound 197, N-[[2-[(2R,6S)-2,6-dimethyl-4-morpholinyl]-5-[2-(trifluoromethyl)-4-pyridinyl]-4-thiazolyl]methyl]-3-methyl-4-isoxazolecarboxamide] | – | 363 | 205 | 1
4 | CC(C)C(=O)NCc1nc(N2C[C@@H](C)O[C@@H](C)C2)sc1-c1ccnc(C(F)(F)F)c1 [Compound 201, N-[[2-[(2R,6S)-2,6-dimethyl-4-morpholinyl]-5-[2-(trifluoromethyl)-4-pyridinyl]-4-thiazolyl]methyl]-2-methyl-propanamide] | 930 | 245 | 216 | 1
5 | Cc1cc(-c2sc(N3CC4CCC(C3)O4)nc2CNC(=O)C(C)C)cc(C)n1 [Compound 207, N-[[5-(2,6-dimethyl-4-pyridinyl)-2-(8-oxa-3-azabicyclo[3.2.1]oct-3-yl)-4-thiazolyl]methyl]-2-methyl-propanamide] | – | 3310 | 179 | 1
6 | Cc1cc(-c2sc(N3CC4CCC(C3)O4)nc2CNC(=O)c2ccc(F)cc2C)cc(C)n1 [Compound 208, N-[[5-(2,6-dimethyl-4-pyridinyl)-2-(8-oxa-3-azabicyclo[3.2.1]oct-3-y1)-4-thiazolyl]methyl]-4-fluoro-2-methyl-benzamide] | 898 | 603 | 194 | 2

Continued, in another order:

Row | Emax [1] [%] | EC50 [1] [nM] | melting point [°C] | SMILES | PAM_Type PAM type [2]
7 | 995 | 74.1 | 182 | Cc1cc(-c2sc(N3CCO[C@@H](C(F)(F)F)C3)nc2CNC(=O)CC2CC2)cc(C)n1 [Compound 191, N-[[5-(2,6-dimethyl-4-pyridinyl)-2-[(2R)-2-(trifluoromethyl)-4-morpholinyl]-4-thiazolyl]methyl]-cyclopropaneacetamide] | 2
8 | – | 55 | 189 | Cc1cc(-c2sc(N3CCOC(C(F)(F)F)C3)nc2CNC(=O)C(C)C)cc(C)n1 (stereo not drawn) [Compound 194, N-[[5-(2,6-dimethyl-4-pyridinyl)-2-[2-(trifluoromethyl)-4-morpholinyl]-4-thiazolyl]methyl]-2-methyl-propanamide] | 3
9 | 819 | 56.2 | 178 | Cc1cc(-c2sc(N3CCOC(C(F)(F)F)C3)nc2CNC(=O)c2conc2C)cc(C)n1 (stereo not drawn) [Compound 196, N-[[5-(2,6-dimethyl-4-pyridinyl)-2-[2-(trifluoromethyl)-4-morpholinyl]-4-thiazolyl]methyl]-3-methyl-4-isoxazolecarboxamide] | 2
10 | – | 162 | 198 | C[C@@H]1CN(c2nc(CNC(=O)CC3CC3)c(-c3ccnc(C(F)(F)F)c3)s2)C[C@H](C)O1 [Compound 200, N-[[2-[(2R,6S)-2,6-dimethyl-4-morpholinyl]-5-[2-(trifluoromethyl)-4-pyridinyl]-4-thiazolyl]methyl]-cyclopropaneacetamide] | 1
11 | 705 | 3160 | 161 | Cc1cc(-c2sc(N3CC4CCC(C3)O4)nc2CNC(=O)CC2CC2)cc(C)n1 [Compound 209, N-[[5-(2,6-dimethyl-4-pyridinyl)-2-(8-oxa-3-azabicyclo[3.2.1]oct-3-y1)-4-thiazolyl]methyl]-cyclopropaneacetamide] | 0
